According to patent US20130210034A1, “COMPLEX PHOSPHOPROTEIN ACTIVATION PROFILES” (BECKMAN COULTER, INC., priority 2005, published 2013):
Values joined by “and” are separate entries in the source; they are usually repeats but may differ in a detail not shown here. Identical values can stand only once.

Assays:
Type in all cases: cell-based, human
[1] = system: pAKT; assay: Cytokine-stimulated phosphorylation in immunophenotypically defined cell populations from healthy donor BM (flow cytometry); settings: for pAKT Percent (%) Responding Cells, Mean / pAKT S/N ratio: healthy donor BM, mean ± SD;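 on pAKT S/N ratio: Phosphoprotein MFI normalized to lymphocyte MFI as internal negative control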
Protocol: (§1) Bone marrow (BM) samples were collected in 7.5 mL Iscove's modified Dulbecco's medium (IMDM) supplemented with 100U penicillin, 0.01 mg/mL streptomycin, and 70 μg/mL heparin sodium salt from 10 patients undergoing hip replacement surgery, who were otherwise healthy. These patients were from a pool of surgery patients, age 49 to 77, and represented […] patients. […] These BM samples were rinsed twice with IMDM to release cells, filtered using a 100 μm Nylon cell strainer to remove marrow particles, and centrifuged for at RT fro 7 minutes at 200 g. The cell pellet was washed twice with sterile IMDM to remove traces of fat and re-suspended in IMDM to a concentration of 3×10^7 cells/mL.
(§2) To assess the signal transduction response after growth factor simulation, a series comprising two sets of tubes including about 3×10^6 cells/100 μL were incubated at 37° C. for 30 minutes. After this pre-incubation period, tubes with then processes with either a stimulant or inhibitor. […] To examine the effects of protein phosphorylation inhibition, tubes were incubated with an inhibitor cocktail comprising 100 μM/100 μL UO126, 1 μM/100 μL LY294002, and 1 μM/100 μL rapamycin. One unstimulated tube receiving no stimulant or inhibitor was processed to assess basal levels of phospho-protein expression. After stimulation the cells were immediately fixed in 10% formaldehyde solution at 37° C. Pre-labeling with CD13, CD16 and CD64 antibodies was carried out 20 minutes prior to formaldehyde fixation. After fixation, one set of tubes was permeabilized without methanol for pAKT, pERK and pS6 staining and the other for 80% methanol permeabilized for pSTAT3 and pSTAT5 staining. After permeablization, the cells were washed in PBS with 2% BSA and blocked by re-suspended in 75 μL of PBS comprising 25% heat inactivated normal mouse serum, 25% normal rabbit serum. To stain cells with fluorescent conjugated monoclonal antibodies, samples were incubated on ice for 45 minutes in 100 μL of an antibody staining solution including either: 1) CD15-Pacific Orange, CD34-Phycoerythrin-Texas Red, CD117-Phycoerythrin-Cyanin 5.5, CD45-Allophycocyanin-Alexa Fluor 750 (or CD45-Pacific Orange, in which case CD15-Pacific Orange was omitted), pS6-Pacific Blue, pERK-Alexa Fluor 488 and pAKT-Alexa Fluor 647 or 2) CD15-Pacific Orange, CD34-Phycoerythrin-Texas Red, CD117-Phycoerythrin-Cyanin 5.5, CD45-Allophycocyanin-Alexa Fluor 750 or CD45-Pacific Blue, pSTAT3-Alexa Fluor 488 and pSTAT5-Phycoerythrin. The stained cells were washed twice with ice cold PBS containing 2% BSA and centrifuged at 800 g for 6 minutes at 4° C. The supernatant was discarded and cells re-suspended in 250 μL of chilled wash buffer for data acquisition. Stained cells were examined using either GALIOS flow cytometer (Beckman Coulter) or CYAN ADP (Beckman Coulter) equipped with 488 nm, 405 nm and 635 nm lasers to detect the degree of fluorescence. Data were analyzed using FCS Express (De Novo Software, CA) analysis software.
(§3) Specific phosphoprotein expression of pERK, pS6, pAKT, pSTAT5, and pSTAT3 was examined in seven discrete phenotypically defined populations based on 7-color immunophenotyping (FIG. 1). The percent of responding (phosphorprotein positive) cells for each of these populations was determined from individual single parameter histograms based on a fixed integration region set on the inhibitor treated control at about 3% positives.

[2] = system: pERK; assay: as above; settings: for pERK Percent (%) Responding Cells, Mean / pERK S/N ratio: healthy donor BM, mean ± SD
Protocol: as §1, §2, §3

[3] = system: pS6; assay: as above; settings: for pS6 Percent (%) Responding Cells, Mean / pS6 S/N ratio: healthy donor BM, mean ± SD;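 on pS6 S/N ratio: Phosphoprotein MFI normalized to lymphocyte MFI as internal negative control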
Protocol: as §1, §2, §3

[4] = system: pSTAT3; assay: as above; settings: healthy donor BM, mean ± SD;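 on pSTAT3 S/N ratio: Phosphoprotein MFI normalized to lymphocyte MFI as internal negative control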
Protocol: as §1, §2, §3

[5] = system: pSTAT5; assay: as above; settings: healthy donor BM, mean ± SD
Protocol: as §1, §2, §3

[6] = system: pERK; assay: Cytokine-stimulated phosphorylation in AML cell populations (BM or PB of AML patients)
Protocol: as §2, §3
Using normal BM signaling profiles of Example 1 as comparison, analysis of 14 AML samples was carried out to identify differences in signaling responses. White blood cells from BM or peripheral blood (PB) samples were obtained from 14 diagnosed AML patients undergoing routine clinical flow cytometry analysis using IRB approved protocols. The AML patients included newly diagnosed AML, AMLs arising in a background of MDS, therapy related AMLs and previously diagnosed AML post therapy. The median age of the patients at diagnosis was 51 years (range: 29-75 years) and represented 5 female and 9 male patients. The median white blood cell was 6.4 million/mL (range: 0.9-106 M/mL) and the BM morphologic blast count was an average of 46% (range: 0%-90%).
Experiments performed to assess the signal transduction response after growth factor simulation were performed as described for Example 1.
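Wherever pERK S/N ratio is given: Phosphoprotein MFI normalized to lymphocyte MFI as internal negative control.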

Stem Cell Factor [SCF]
pAKT Percent (%) Responding Cells, Mean ([1]; CD34^+ (CD34^+/CD117^+ cells)): 58.0% and 58.0 ± 27.3% | pAKT S/N ratio ([1]; CD34^+ (CD34^+/CD117^+ cells)): 7.5 and 7.5 ± 5.7 | pAKT Percent (%) Responding Cells, Mean ([1]; CD117^+ (CD34^−/CD117^+ cells)): 60.6% and 60.6 ± 33.5% | pAKT S/N ratio ([1]; CD117^+ (CD34^−/CD117^+ cells)): 7.3 ± 5.4 | pAKT Percent (%) Responding Cells, Mean ([1]; G1, immature myeloid cells): 2.9 ± 2.4% | pAKT S/N ratio ([1]; G1, immature myeloid cells): 2.2 ± 1.1 | pAKT Percent (%) Responding Cells, Mean ([1]; G2, intermediate myeloid cells): 3.9 ± 3.9% | pAKT S/N ratio ([1]; G2, intermediate myeloid cells): 2.3 ± 1.0 | pAKT Percent (%) Responding Cells, Mean ([1]; G3, mature myeloid cells): 4.2 ± 3.0% | pAKT S/N ratio ([1]; G3, mature myeloid cells): 2.6 ± 1.2 | pAKT Percent (%) Responding Cells, Mean ([1]; Mono, monocytes): 6.5 ± 8.2% | pAKT S/N ratio ([1]; Mono, monocytes): 2.4 ± 1.0 | pAKT, Normal Sample ([1]; Table 7 comparison value): 58.0 | pERK Percent (%) Responding Cells, Mean ([2]; CD34^+ (CD34^+/CD117^+ cells)): 89.8% and 89.8 ± 6.9% | pERK S/N ratio ([2]; CD34^+ (CD34^+/CD117^+ cells)): 13.3 and 13.3 ± 4.9 | pERK Percent (%) Responding Cells, Mean ([2]; CD117^+ (CD34^−/CD117^+ cells)): 67.7% and 67.7 ± 20.1% | pERK S/N ratio ([2]; CD117^+ (CD34^−/CD117^+ cells)): 8.6 ± 3.2 | pERK Percent (%) Responding Cells, Mean ([2]; G1, immature myeloid cells): 1.6 ± 0.8% | pERK S/N ratio ([2]; G1, immature myeloid cells): 2.9 ± 0.6 | pERK Percent (%) Responding Cells, Mean ([2]; G2, intermediate myeloid cells): 2.8 ± 2.1% | pERK S/N ratio ([2]; G2, intermediate myeloid cells): 2.7 ± 0.5 | pERK Percent (%) Responding Cells, Mean ([2]; G3, mature myeloid cells): 6.5 ± 7.2% | pERK S/N ratio ([2]; G3, mature myeloid cells): 3.1 ± 0.6 | pERK Percent (%) Responding Cells, Mean ([2]; Mono, monocytes): 13.6 ± 3.6% | pERK S/N ratio ([2]; Mono, monocytes): 3.2 ± 2.1 | pERK, Normal Sample (first AML5 line) ([2]; Table 7 comparison value, matches S/N ratio of Table 1): 13.3 | pERK, Normal Sample ([2]; Table 7 comparison value, matches percent responding CD34^+ cells of Tables 1-5): 89.8 | pS6 Percent (%) Responding Cells, Mean ([3]; CD34^+ (CD34^+/CD117^+ cells)): 81.7% and 81.7 ± 16.3% | pS6 S/N ratio ([3]; CD34^+ (CD34^+/CD117^+ cells)): 48.4 and 48.4 ± 39.3 | pS6 fraction positive responding ([3]; CD34^−CD117^+ cells, normal BM, non-homogeneous response): 53.8% | pS6 Percent (%) Responding Cells, Mean ([3]; CD117^+ (CD34^−/CD117^+ cells)): 51.9% and 51.9 ± 16.9% | pS6 S/N ratio ([3]; CD117^+ (CD34^−/CD117^+ cells)): 108.2 ± 94.9 | pS6 Percent (%) Responding Cells, Mean ([3]; G1, immature myeloid cells): 2.1 ± 1.4% | pS6 S/N ratio ([3]; G1, immature myeloid cells): 3.3 ± 1.9 | pS6 Percent (%) Responding Cells, Mean ([3]; G2, intermediate myeloid cells): 2.1 ± 1.2% | pS6 S/N ratio ([3]; G2, intermediate myeloid cells): 2.9 ± 1.8 | pS6 Percent (%) Responding Cells, Mean ([3]; G3, mature myeloid cells): 3.8 ± 2.6% | pS6 S/N ratio ([3]; G3, mature myeloid cells): 3.5 ± 2.3 | pS6 Percent (%) Responding Cells, Mean ([3]; Mono, monocytes): 43.5 ± 19.9% | pS6 S/N ratio ([3]; Mono, monocytes): 11.2 ± 12.3 | pSTAT3 Percent (%) Responding Cells, Mean ([4]; CD34^+ (CD34^+/CD117^+ cells)): 7.3 ± 4.3% | pSTAT3 S/N ratio ([4]; CD34^+ (CD34^+/CD117^+ cells)): 1.9 ± 0.2 | pSTAT3 Percent (%) Responding Cells, Mean ([4]; CD117^+ (CD34^−/CD117^+ cells)): 2.6 ± 1.4% | pSTAT3 S/N ratio ([4]; CD117^+ (CD34^−/CD117^+ cells)): 2.5 ± 0.6 | pSTAT3 Percent (%) Responding Cells, Mean ([4]; G1, immature myeloid cells): 3.0 ± 3.5% | pSTAT3 S/N ratio ([4]; G1, immature myeloid cells): 3.3 ± 0.5 | pSTAT3 Percent (%) Responding Cells, Mean ([4]; G2, intermediate myeloid cells): 2.2 ± 1.8% | pSTAT3 S/N ratio ([4]; G2, intermediate myeloid cells): 3.3 ± 0.5 | pSTAT3 Percent (%) Responding Cells, Mean ([4]; G3, mature myeloid cells): 4.7 ± 4.0% | pSTAT3 S/N ratio ([4]; G3, mature myeloid cells): 3.6 ± 0.6 | pSTAT3 Percent (%) Responding Cells, Mean ([4]; Mono, monocytes): 4.4 ± 2.0% | pSTAT3 S/N ratio ([4]; Mono, monocytes): 2.4 ± 0.3 | pSTAT5 Percent (%) Responding Cells, Mean ([5]; CD34^+ (CD34^+/CD117^+ cells)): 11.6 ± 3.0% | pSTAT5 S/N ratio ([5]; CD34^+ (CD34^+/CD117^+ cells)): 1.5 ± 0.9 | pSTAT5 Percent (%) Responding Cells, Mean ([5]; CD117^+ (CD34^−/CD117^+ cells)): 7.4 ± 4.7% | pSTAT5 S/N ratio ([5]; CD117^+ (CD34^−/CD117^+ cells)): 2.2 ± 0.7 | pSTAT5 Percent (%) Responding Cells, Mean ([5]; G1, immature myeloid cells): 6.8 ± 8.0% | pSTAT5 S/N ratio ([5]; G1, immature myeloid cells): 3.1 ± 0.7 | pSTAT5 Percent (%) Responding Cells, Mean ([5]; G2, intermediate myeloid cells): 4.9 ± 5.6% | pSTAT5 S/N ratio ([5]; G2, intermediate myeloid cells): 3.2 ± 0.7 | pSTAT5 Percent (%) Responding Cells, Mean ([5]; G3, mature myeloid cells): 6.9 ± 6.7% | pSTAT5 S/N ratio ([5]; G3, mature myeloid cells): 3.8 ± 0.8 | pSTAT5 Percent (%) Responding Cells, Mean ([5]; Mono, monocytes): 9.5 ± 13.8% | pSTAT5 S/N ratio ([5]; Mono, monocytes): 2.5 ± 0.6 | pERK, AML Sample ([6]; patient AML2 (Example 3)): 4.8 | pERK, AML Sample (first AML5 line) ([6]; patient AML5 (Example 3), normal value of this line is an S/N ratio): 3.4 | pERK, AML Sample ([6]; patient AML6 (Example 3)): 3.0 | pERK, AML Sample ([6]; patient AML11 (Example 3)): 3.3 | pERK, AML Sample ([6]; patient AML12 (Example 3)): 3.3 | pERK, AML Sample ([6]; patient AML13 (Example 3)): 4.8
